Active and inactive are the calls of the source.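 Rule for the calls: active = caspase luminescence falls with dose and the half-maximal concentration AC50 from the fitted curve is at or below a set limit; inconclusive = flat fit at 30 to 70% signal loss, or invalid fit; inactive = AC50 above the limit, or signal rises instead.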

This note sets out measurements from PubChem BioAssay AID463206 (Broad Institute, 2010).

For the assay, the system named is INS-1E cytokine-induced caspase-3/7, Caspase-Glo luminescence, 48 h. The experiment in a line: inhibitors of cytokine-induced caspase-3/7 activity, dose response, orthogonal assay for beta-cell apoptosis protection project, INS-1E rat cells, luminescence (AID 463206).
What is called AC50 is the concentration giving half of the maximal activity seen. With `C/C(=N\NC(=O)c1ccc(Cl)cc1)c1ccccn1`, the AC50 is > 26 µM (inactive).

`Cc1cccc(NC2=C(NC(=O)c3ccccc3)C(=O)c3ccccc3C2=O)c1`: the AC50 is > 26 µM (inactive).

Consider `C=CCn1c(=NC(=O)c2cc(-c3cccs3)nc3ccccc23)sc2cc(S(N)(=O)=O)ccc21`, for which the AC50 was > 26 µM (inactive).

With `O=C(Nc1cc(Sc2ccccn2)cc([N+](=O)[O-])c1)c1cccc(F)c1`, the AC50 was > 26 µM (inactive).

Regarding `CCC1=NN(C(=O)c2ccccc2O)C(O)(c2ccccc2)C1` (configuration not stated), the AC50 was > 26 µM (inactive).

For `Cc1cc(C)n2nc(SCc3nnc(SCc4ccccc4C)s3)nc2n1`, the AC50 was > 26 µM (inactive).

As for `Cc1[nH]n(C2=NCCS2)c(=O)c1N=Nc1cccc(C(F)(F)F)c1`, the AC50 was > 26 µM (inactive).

In the case of `Cc1ccccc1CNc1ccc(C(CC(N)=O)NC(=O)c2ccc(Br)cc2)cc1[N+](=O)[O-]` (configuration not stated), the AC50 was > 26 µM (inactive).

Regarding `Cc1ccc(NC(=O)Nc2cccc([N+](=O)[O-])c2)cc1F`, the AC50 is > 26 µM (inactive).

As for `FC(F)(F)c1cnc(NNC(=S)Nc2ccccc2Cl)c(Cl)c1`, the AC50 is > 26 µM (inactive).

Regarding `O=c1c(Cl)c2oc3ccccc3nc-2c2ccccc12`, the AC50 is > 26 µM (inactive).

On to `Cc1ccnc2c1ccc1c(C)ccnc12`, for which the AC50 is > 26 µM (inactive).

Regarding `c1ccc2c(CN3CCCCCC3)c[nH]c2c1`, the AC50 was 4.24 µM.

Regarding `CCc1cc(SC#N)cc(C)c1NC(=O)CCl`, the AC50 is > 26 µM (inactive).

For `Cc1c(N/N=C(\C#N)C(=O)c2ccc(Cl)cc2)c(=O)n(-c2ccccc2)n1C`, the AC50 was > 26 µM (inactive).

Consider `CC(=O)Cc1cc(O)c2ccccc2c1OC(=O)c1ccc(Br)cc1`, for which the AC50 was > 26 µM (inactive).

With `COc1ccc(-n2c(-c3ccc(Cl)cc3)c[n+]3c2CCCCC3)cc1`, the AC50 was > 26 µM (inactive).

Take `Cc1cc(C(C)(C)C)cc(C)c1C[n+]1ccc2ccccc2c1`: the AC50 is > 26 µM (inactive).

Regarding `CCCCOc1ncnc2c1[nH]c1ccc(F)cc12`, the AC50 was > 26 µM (inactive).

In the case of `CCCCNc1c(-c2ccc(SC3CCCCC3)cc2)nc2ccccn12`, the AC50 is > 26 µM (inactive).

Regarding `COc1ccc(C2CC(c3cccc(C)c3)n3nc(N)nc3N2)cc1` (configuration not stated), the AC50 is > 26 µM (inactive).

`COc1ccc(/C=N/Nc2cc(C)nc(-n3nc(C)cc3C)n2)cc1`: the AC50 was > 26 µM (inactive).

`Cn1cc(/C=C/c2cc[n+](C)cc2)c2cc(Cl)ccc21`: the AC50 is > 26 µM (inactive).

For `COc1ncnc(OC)c1S(=O)(=O)Nc1ccc(C(F)(F)F)cc1`, the AC50 is > 26 µM (inactive).

For `Cc1cccc(CNc2ccc(S(=O)(=O)N3CCCCC3)cc2)c1`, the AC50 was > 26 µM (inactive).

Consider `Cc1ccccc1C(=O)Nc1cccc(C(=O)N/N=C/c2cc(Cl)cc([N+](=O)[O-])c2O)c1`, for which the AC50 was > 26 µM (inactive).

With `Cc1nc2ccccc2nc1N/N=C/c1ccc(O)cc1O`, the AC50 was > 26 µM (inactive).

In the case of `c1ccc(-c2csc3ncnc(NCC4COc5ccccc5O4)c23)cc1` (configuration not stated), the AC50 is > 26 µM (inactive).

With `Cc1ccccc1N=Nc1ccc(O)c2ncccc12`, the AC50 is > 26 µM (inactive).

For the compound `Cc1ccc(C(C)C)c(OCc2ccc(C(=O)N/N=C/c3cccc(O)c3O)cc2)c1`, the AC50 is > 26 µM (inactive).

For the compound `CC(=O)c1cccc(NS(=O)(=O)c2ccc(N/C=C\C(=O)c3ccc(F)cc3)cc2)c1`, the AC50 is > 26 µM (inactive).

Consider `Fc1ccccc1N=C1NN=C(c2ccccc2)CS1`, for which the AC50 was > 26 µM (inactive).

Consider `CCN1CCN(Cc2ccc(NC(=O)c3cc(NC(=O)c4cnn(-c5ccccc5)c4N)cc(OC)c3)cc2C(F)(F)F)CC1`, for which the AC50 is > 26 µM (inactive).

With `O=C(N/N=C\c1c(O)ccc2ccccc12)c1ccc(S(=O)(=O)N2CCCCC2)cc1`, the AC50 was > 26 µM (inactive).

With `c1ccc2c(CN3CCCCCCC3)c[nH]c2c1`, the AC50 was > 26 µM (inactive).

For `Cn1c(SCC(=O)N/N=C/c2ccc([N+](=O)[O-])s2)nnc1-c1ccccc1`, the AC50 was > 26 µM (inactive).

Consider `Fc1ccc(Oc2nc(-c3ccccn3)nc3ccccc23)cc1`, for which the AC50 was > 26 µM (inactive).

Consider `COc1ccc(C2CC(c3ccc4ccccc4c3OC(C)=O)=NN2C(C)=O)cc1` (configuration not stated), for which the AC50 was > 26 µM (inactive).

`COC(=O)c1ccc2c(c1)C(C)(C)C(/C=C/c1ccc(OC)c(OC)c1OC)=[N+]2C`: the AC50 was > 26 µM (inactive).

`O=[N+]([O-])c1ccc(S(=O)(=O)c2ccccc2)nc1`: the AC50 is > 26 µM (inactive).

Consider `COc1cnc(-c2ccccn2)nc1Sc1ccccc1Cl`, for which the AC50 was > 26 µM (inactive).

For the compound `Cc1cc(-c2n[nH]c(=S)n2/N=C/C(Br)=C/c2ccccc2)n[nH]1`, the concentration at half-maximal activity (AC50) was 12.4 µM.

With `COc1ccc(C(=O)N/N=C/c2sc3ccccc3c2O)cc1`, the AC50 is > 26 µM (inactive).

Consider `CNC(=S)N(Cc1cccs1)Cc1cc2cc(OC)c(OC)cc2[nH]c1=O`, for which the AC50 was > 26 µM (inactive).

As for `C/C(=N\NC(=O)c1cc(C2CC2)nc2ccccc12)c1ccc(O)cc1O`, the AC50 was > 26 µM (inactive).

On to `Cc1cc([N+](=O)[O-])c2ccccc2[n+]1[O-]`, for which the AC50 is > 26 µM (inactive).

`Brc1ccccc1CN1CCN(Cc2c[nH]c3ccccc23)CC1`: the AC50 is > 26 µM (inactive).

For `O=C(N/N=C/c1ccc([N+](=O)[O-])o1)c1cc2ccccc2o1`, the AC50 is > 26 µM (inactive).

With `COc1ccccc1CNc1ncnc2sccc12`, the AC50 is > 26 µM (inactive).

Regarding `Cc1ccc(/C=N/NC(=O)c2c(-c3ccccc3)noc2C)c(O)c1`, the AC50 is > 26 µM (inactive).

As for `COCCn1c(SCC(=O)/C=C2\N(C)c3ccccc3C2(C)C)nnc1-c1ccncc1`, the AC50 was > 26 µM (inactive).

`CC(C)(C)c1cc([N+](=O)[O-])cc(C(C)(C)C)c1O`: the AC50 was > 26 µM (inactive).

For the compound `CCN(CC)S(=O)(=O)c1cc(OC)ccc1N=Nc1ccc(O)c2ncccc12`, the AC50 is > 26 µM (inactive).

As for `CCn1c(Cl)c(C=O)s/c1=N\S(=O)(=O)c1ccccc1`, the AC50 is > 26 µM (inactive).

Take `FC(F)(F)c1ccccc1NC(=S)N1CCc2ccccc2C1`: the AC50 was > 26 µM (inactive).

As for `CC(C)(C)Sc1ccc2nc3c(n2c1)CCCC3`, the AC50 was > 26 µM (inactive).

As to `O=C(Nc1ccc(Cl)cc1)Nc1ccc(Cl)c(Cl)c1`, the AC50 is > 26 µM (inactive).

Regarding `Cc1ccc(C(=O)NC(=S)/C=C2\N(C)c3ccccc3C2(C)C)cc1`, the AC50 was > 26 µM (inactive).

With `Cc1nn(C)c(C)c1CN(Cc1nc(CCC(C)C)no1)C(C)C`, the AC50 is > 26 µM (inactive).

Regarding `COc1ccc(/C=N/Nc2cc(C)nc(-n3nc(C)cc3C)n2)c(OC)c1`, the AC50 is > 26 µM (inactive).

In the case of `O=C(N/N=C\c1c(O)ccc2ccccc12)c1ccc(Cn2cccn2)o1`, the AC50 was > 26 µM (inactive).

Regarding `COC(/C(=N/O)c1ccc(Cl)cc1)c1ccccc1` (configuration not stated), the AC50 is > 26 µM (inactive).

On to `COCCC1CCCCN1C(=O)c1cc(COc2ccc(-n3cncn3)cc2)on1` (configuration not stated), for which the AC50 was > 26 µM (inactive).

`CC(C)(C)CN1CCC(Oc2cccc(C(=O)NCCCOc3cccnc3)c2)CC1`: the AC50 is > 26 µM (inactive).

Turning to `CC1(C)C(C=C(Cl)Cl)C1C(=O)Nc1ccc([N+](=O)[O-])cc1` (configuration not stated), the AC50 was > 26 µM (inactive).

Regarding `CCOC(=O)c1cnc(-n2nc(C)cc2C)nc1Nc1ccc(N(C)C)cc1`, the AC50 was > 26 µM (inactive).

Turning to `Cc1ccc(NC2=C/C(=N/S(=O)(=O)c3cccs3)c3ccccc3C2=O)cc1`, the AC50 is > 26 µM (inactive).

Consider `CN(C)c1cc[n+](CC(=O)c2ccc(-c3ccccc3)cc2)cc1`, for which the AC50 is > 26 µM (inactive).

Regarding `CCOc1ccc2nc(NC(=O)c3cccc(-c4cc5ccccc5oc4=O)c3)sc2c1`, the AC50 was > 26 µM (inactive).

For `CCN(CC)S(=O)(=O)c1cc([N+](=O)[O-])ccc1NNC(=O)Nc1ccc(Cl)c(Cl)c1`, the AC50 was > 26 µM (inactive).

With `CC(=O)/C=C1\N(C)c2ccc(C)cc2C1(C)C`, the AC50 was > 26 µM (inactive).

For the compound `Cc1ccc(-c2nn(-c3ccccc3)cc2/C=N/NC(=O)c2ccc3c(c2)OCO3)cc1`, the AC50 is > 26 µM (inactive).

Turning to `CCCCC(CC)CN1C(=O)/C(=C/c2ccncc2)SC1=S` (configuration not stated), the AC50 is > 26 µM (inactive).

For `CC(C)(C)n1[nH]c2c3c(ccc2c1=O)C(=O)c1ccccc1C3=O`, the AC50 was > 26 µM (inactive).

Consider `CC(C)C(=O)NC(=S)/C=C1/N(C)c2ccccc2C1(C)C`, for which the AC50 is > 26 µM (inactive).

Regarding `CCOc1cc(-c2sc(Nc3cc(C)ccc3OC)n[n+]2-c2ccccc2)ccc1OC`, the AC50 was > 26 µM (inactive).

On to `O=C(CSC1c2ccccc2-c2ccccc21)N/N=C/c1ccccc1O`, for which the AC50 is > 26 µM (inactive).

For the compound `COc1ccc(C2=Nn3c([n+](C)c4ccccc43)SC2)cc1`, the AC50 is > 26 µM (inactive).

For the compound `Oc1ccc(CN2CCc3ccccc3C2)c2cccnc12`, the AC50 is > 26 µM (inactive).

For the compound `COc1ccc2cc(C(=O)N/N=C/c3sc4ccccc4c3O)ccc2c1`, the AC50 was > 26 µM (inactive).

For `CCCCn1c(NS(=O)(=O)c2ccccc2)c(S(=O)(=O)c2ccc(C)cc2)c2nc3ccccc3nc21`, the AC50 is > 12 µM (inactive).

In the case of `Cc1ccc(Nc2c(-c3ccccn3)nc3cc(C)ccn23)cc1`, the AC50 was > 26 µM (inactive).

On to `CCOc1cc(CNCCc2ccc(S(N)(=O)=O)cc2)ccc1OCc1ccc(Cl)cc1`, for which the AC50 is > 26 µM (inactive).

Turning to `CC(C)(C)c1ccc(-n2ncc3c2CCCC3NC(=O)C2(C(N)=O)CC2)cc1` (configuration not stated), the AC50 is > 26 µM (inactive).

Regarding `CC(C)(C)C1CCC2(CC1)C(C#N)=C(SCC(=O)NC1CCCCC1)NC(=O)C2C#N` (configuration not stated), the AC50 is > 26 µM (inactive).

For `O=Nc1c(O)c2ccccc2c2ccccc12`, the AC50 was > 26 µM (inactive).

As to `Cc1ccc(C(C)C)c(OCC(O)CN2CCc3ccccc3C2)c1` (configuration not stated), the AC50 was > 12 µM (inactive).
